The text below walks through data of publication PMC10432564, “Pharmacological perturbation of the phase-separating protein SMNDC1” (Nature Communications, 2023).

For one test, the target named is T1, SMNDC1 Tudor domain (Homo sapiens, UniProt O75940).
T1 sequence (O75940 65-128): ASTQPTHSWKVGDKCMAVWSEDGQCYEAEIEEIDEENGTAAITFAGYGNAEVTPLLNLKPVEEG
Description: AlphaScreen, SMNDC1 Tudor domain / sDMA-peptide interaction. Background: Alpha assays give light when donor and acceptor beads are brought close together.

The target in the next test is T2, APEX2-SMNDC1^TD (Homo sapiens, UniProt O75940).
T2 construct: a truncated SMNDC1 consisting of only the Tudor domain and therefore lacking N-terminal and C-terminal regions; expressed in transfected cells
T2 sequence (O75940 72-132 limits assumed): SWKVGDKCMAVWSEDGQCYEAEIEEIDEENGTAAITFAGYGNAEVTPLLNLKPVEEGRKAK
Description: APEX2-SMNDC1^TD proximity labeling, biotin enrichment and mass spectrometry. Type of test: cell-based, mouse. To be noted: compound-treated over DMSO; adjusted p-value<0.05, |log2FC|≥2. An excerpt: Proximity labeling with APEX2 was done following the described protocol for imaging and proteomic analysis. Cell lines with a stable expression of APEX2-fusion proteins were generated using lentiviral transduction of plasmids generated with Gateway cloning of the respective fusion protein into pLEX305. pLEX_305 was a gift from David Root (Addgene plasmid # 41390; http://n2t.net/addgene:41390; RRID:Addgene_41390). The APEX2 sequence was amplified from APEX2-csGBP which was a gift from Rob Parton (Addgene plasmid # 108874; http://n2t.net/addgene:108874; RRID:Addgene_108874). Briefly, cells were incubated with 0.5 mM biotin-phenol for 30 min, after which 1 mM H2O2 was added for exactly 1 min. Afterwards the labeling reaction was quenched by 3 quick washes with Quenching solution (10 mM sodium ascorbate, 10 mM sodium azide, 5 mM Trolox in PBS). […]
After proximity labeling, cells (~10 Mio. cells, 15 cm dish) were harvested, washed 2x in PBS, snap frozen and stored at −80 °C. […] After quantification of protein amounts by Pierce™ 660 nm Protein Assay, samples were normalized to 500 µg total protein input in a final volume of 300 µl lysis buffer. […]
Following data acquisition, acquired raw data files were processed using the Proteome Discoverer v.2.4.1.15 platform, choosing a TMT16plex quantification method. […]

Test [1] has as its system SMNDC1-GFP intron 2-3, SRRM2-RFP intron 9-10, αTC1-clone. Description: Fluorescence recovery after photobleaching (FRAP). The class given is cell-based, mouse. To be noted: 50 µM, 15-45 min. The method, then: For FRAP experiments, cells harboring intron-tags in SMNDC1 and SRRM2 were seeded 24 h before imaging on a Zeiss LSM 980 microscope. 15 min before imaging, medium was changed to medium without phenol red containing DRAQ5^TM 1:1000 to reduce autofluorescence and to mark nuclei. If cells were treated with compounds, these were added in the same step. After identifying a suitable cell, bleach and reference regions were defined. After taking one reference image, the bleach region was bleached 15 times for 5 milliseconds with 100% laser power at 488 nm for GFP and with 20% laser power at 546 nm for RFP. After bleaching, a new image was taken approximately every 3 s until 150 s after bleaching. Fluorescence intensities were quantified in the bleach and reference regions for every image and normalized to the intensity before bleaching.

Description for SMNDC1 Tudor domain: To pharmacologically perturb SMNDC1 function, we set out to identify small molecule inhibitors of SMNDC1’s Tudor domain based on perturbing its interaction with a dimethylarginine peptide. To establish an AlphaScreen[50], we coupled donor beads to purified SMNDC1’s (or SMN’s) Tudor domain via a His-Tag and acceptor beads to a biotinylated peptide corresponding to the C-terminal region of the Small nuclear ribonucleoprotein Sm D3 containing four sDMAs (Fig. 4a). […] To identify ideal concentrations for screening, we performed a cross-titration of Tudor domains and binding peptides (Supplementary Fig. 3b).
The AlphaScreen was conducted in 20 mM sodium phosphate pH 6.5, 50 mM NaCl, Tween 0.01%, BSA 0.1%. Protein concentration was optimized for each batch of purified protein. Optimal concentration was chosen at the lowest concentration with ~80% of maximum signal. […] In the first step, 10 µl of the protein solution containing either SMNDC1’s or SMN’s Tudor domain coupled to a 6xHis-Tag were distributed to 384-well plates pre-spotted with compounds and controls, shaken and incubated for 30 min at RT. Afterwards, 10 µl of peptide solution was added to each well and incubated for 1 h at RT. Finally, 5 µl of a solution containing both Streptavidin Donor and nickel chelate (Ni-NTA) Acceptor beads was added and again incubated for 1 h at RT.
Category Parameter Description
Assay Type of assay In vitro AlphaScreen / luminescence proximity
Target Tudor domain of SMNDC1
Primary measurement Decrease in luminescence signal reflecting
disruption of heterodimeric complex between
SMNDC1-Tudor domain and a peptide
corresponding to the C-terminus of Small nuclear
ribonucleoprotein Sm D3 containing 4 sDMAs
Key reagents AlphaScreen no-wash assay kit containing
Streptavidin Donor beads and nickel chelate (Ni-
NTA) AlphaScreen Acceptor beads (PerkinElmer
Assay protocol Described in Methods section
Screen Format PerkinElmer OptiPlate-384 well plate
Concentration(s) tested Typically 10 μM (0.1% DMSO)
Plate controls 32 positive control wells (Mitoxantrone, quencher),
32 negative control wells (DMSO)
Reagent/ compound dispensing system Echo 520 Liquid Handler Multidrop™ Combi
Normalization Raw signal was normalized plate-specifically by
correcting row and column-specific mean signals to
the mean signal of the entire plate, each after
removing the highest and lowest 25% of values. Raw
signal was then converted to percent of control
signal, but linear regression to plate-specific mean
signal of DMSO wells (set to 100 percent of control)
and positive control wells (set to 0% of control), after
outlier removal using a Grubbs test.
unspecific quenchers), Secondary screen (with

For orientation: IC50 means the concentration that gives 50% inhibition. A low value points to higher potency. The molecule `CN(C)S(=O)(=O)c1ccc(C(=O)Nc2nc(-c3ccccn3)cs2)cc1` [compound 1] returned an IC50 against SMNDC1 Tudor domain of 500 nM. Moreover, on APEX2-SMNDC1^TD, the proteins significantly depleted was 0 proteins and the proteins significantly enriched turned out to be 5 proteins. Moreover, the “recovery after photobleaching of SMNDC1 and SRRM2” value in test [1] is given as “lower recovery after photobleaching”.
